The record followed here is patent US20230212549A1, “COMPOUNDS COMPRISING A […] LIGAND AND USE THEREOF” (priority 2021, published 2023).

Numbered stars: 1 amine (or outer) side, 2 acyl side, 3 side chain; on linkers, the order of the positions; unused ones are H or OH. Bridge positions count the residues as written; N and C are the ends. Square brackets hold non-standard residues; d marks the D form. Peptide text beside a SMILES is read from it. * marks the point of attachment. X13 = O=C(O)CN1CCN(CC(=O)O)CCN(CC(=O)N2CCN(Cc3cc(C[*:1])cc(C[*:2])c3)CC2)CCN(CC(=O)O)CC1; Oic = O=C(O)[C@@H]1C[C@@H]2CCCC[C@@H]2N1; Pro(4,4-F2) = O=C(O)[C@@H]1CC(F)(F)CN1; mXylylene = c1cc(C[*:1])cc(C[*:2])c1; Hexanoyl = CCCCCC(=O)*; Sar = CNCC(=O)O

For orientation: IC50 means the midpoint of a concentration-inhibition curve.

In assay [1] the target is Human recombinant FAP (Homo sapiens, UniProt Q12884). Nature of the assay: FRET-based FAP protease activity assay. Type of assay: biochemical. On the set-up: purchased R&D systems 3715-SE. The conditions noted are these: pIC50 Category (Activity), 37° C.
Assay [2] concerns the target T1, FAP-expressing human WI-38 fibroblasts (Homo sapiens, UniProt Q12884).
T1 construct: FAP-expressing human WI-38 fibroblasts (ECACC) were cultured in EMEM; host or cells: WI-38 human fibroblasts
Nature of the assay: Competitive FACS binding assay. How it is done: Cells were analyzed in an Attune NxT flow cytometer. […] […].
Cells were analyzed in an Attune NxT flow cytometer. […]

Setting [3] is: FRET-based FAP protease activity assay, recombinant human FAP.

T1 sequence (Q12884 whole entry): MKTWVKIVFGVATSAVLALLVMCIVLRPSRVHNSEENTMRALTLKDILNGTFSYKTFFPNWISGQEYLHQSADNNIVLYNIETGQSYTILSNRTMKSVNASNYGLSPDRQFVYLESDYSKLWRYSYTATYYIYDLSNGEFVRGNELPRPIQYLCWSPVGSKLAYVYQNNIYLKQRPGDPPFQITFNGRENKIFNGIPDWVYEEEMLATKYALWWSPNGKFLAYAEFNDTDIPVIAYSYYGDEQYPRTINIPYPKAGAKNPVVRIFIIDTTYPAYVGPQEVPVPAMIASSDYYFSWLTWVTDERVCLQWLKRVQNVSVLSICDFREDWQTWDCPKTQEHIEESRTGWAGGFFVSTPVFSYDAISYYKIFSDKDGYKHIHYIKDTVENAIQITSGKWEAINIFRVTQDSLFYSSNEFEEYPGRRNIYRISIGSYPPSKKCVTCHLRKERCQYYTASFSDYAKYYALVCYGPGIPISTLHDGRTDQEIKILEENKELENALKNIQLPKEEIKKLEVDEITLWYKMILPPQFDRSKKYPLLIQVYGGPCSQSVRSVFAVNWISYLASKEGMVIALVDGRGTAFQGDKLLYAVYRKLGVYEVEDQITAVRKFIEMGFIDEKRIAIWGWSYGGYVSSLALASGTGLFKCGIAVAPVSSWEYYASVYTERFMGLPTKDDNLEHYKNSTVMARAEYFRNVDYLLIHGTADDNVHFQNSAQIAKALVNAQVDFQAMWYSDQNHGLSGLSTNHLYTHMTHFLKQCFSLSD
Chain of Human recombinant FAP (Q12884 whole entry): as above

With `CC(=O)N[C@@H](CCO)C(=O)N[C@H]1CSCc2cccc(c2)CSC[C@@H](C(N)=O)NC(=O)[C@H](Cc2ccccc2)NC(=O)[C@H](CCC(N)=O)NC(=O)[C@H]([C@@H](C)O)NC(=O)[C@@H]2CCCN2C(=O)[C@@H]2CCCN2C1=O` [3BP-3763, Ac-Hse-[Cys(3MeBn)-Pro-Pro-Thr-Gln-Phe-Cys]-NH2], the IC50 in assay [1] (setting [3]) is 100 to 794 nM; in assay [2], greater than 1000 nM.
Take `CCCC[C@H](NC(=O)CCC(=O)NCCCOCCOCCOCCCNC(=O)CN1CCN(CC(=O)O)CCN(CC(=O)O)CCN(CC(=O)O)CC1)C(=O)N[C@H]1CSCc2cccc(c2)CSC[C@@H](C(=O)N[C@@H](CC(=O)O)C(=O)NCCCOCCOCCOCCCNC(=O)CCC(=O)N[C@@H](CCCCNC(=O)CN2CCN(CC(=O)O)CCN(CC(=O)O)CCN(CC(=O)O)CC2)C(N)=O)NC(=O)[C@H](Cc2ccccc2)NC(=O)[C@H](CCC(N)=O)NC(=O)[C@H]([C@@H](C)O)NC(=O)[C@@H]2CCCN2C(=O)[C@@H]2CCCN2C1=O` [3BP-4393, DOTA-Ttds-Nle-[Cys(3MeBn)-Pro-Pro-Thr-Gln-Phe-Cys]-Asp-Ttds-Lys(DOTA)-NH2]: the IC50 in assay [1] (FRET-peptide substrate) and in assay [2] was less than 10 nM in each case.
Consider `CCCCCC(=O)N[C@H]1CSCc2cc(cc(CN3CCN(C(=O)CN4CCN(CC(=O)O)CCN(CC(=O)O)CCN(CC(=O)O)CC4)CC3)c2)CSC[C@@H](C(=O)N[C@@H](CC(=O)O)C(N)=O)NC(=O)[C@@H]2CCCN2C(=O)[C@@H]2CCCN2C(=O)[C@H]([C@@H](C)O)NC(=O)[C@H](CCC(N)=O)NC(=O)[C@H](Cc2ccccc2)NC1=O` [3BP-3855, Hex-[Cys(tMeBn(DOTA-PP))-Phe-Gln-Thr-Pro-Pro-Cys]-Asp-NH2] (Hexanoyl-CFQTPPCD-NH2; linker 1-7 via X13), for which the IC50 in assay [1] (setting [3]) and in assay [2] was greater than 1000 nM each time.
Consider `CCCCCC(=O)N[C@H]1CSCc2cccc(c2)CSC[C@@H](C(N)=O)NC(=O)[C@H](Cc2ccccc2)NC(=O)[C@H](CCC(=O)O)NC(=O)[C@H]([C@@H](C)O)NC(=O)[C@@H]2CCCN2C(=O)CN(C)C1=O` [3BP-3347, Hex-[Cys(3MeBn)-Nmg-Pro-Thr-Glu-Phe-Cys]-NH2] (Hexanoyl-C[Sar]PTEFC-NH2; linker 1-7 via mXylylene), for which the IC50 in assay [1] (setting [3]) lay within 10 to 79.4 nM; in assay [2], 100 to 794 nM.
As for `C#CCCC(=O)N[C@H]1CSCc2cc(CSCCNC(=O)CN3CCN(CC(=O)O)CCN(CC(=O)O)CCN(CC(=O)O)CC3)cc(c2)CSC[C@@H](C(=O)O)NC(=O)[C@H](Cc2ccccc2)NC(=O)[C@H](CCC(N)=O)NC(=O)[C@H]([C@@H](C)O)NC(=O)[C@@H]2CCCN2C(=O)[C@@H]2CCCN2C1=O` [3BP-3912, Pyn-[Cys(tMeBn(DOTA-AET))-Pro-Pro-Thr-Gln-Phe-Cys]-OH], the IC50 lay in the range of 100 to 794 nM in assay [1] (FRET-peptide substrate) and 10 to 79.4 nM in assay [2].
As to `CCCCCC(=O)N[C@H]1CSCc2cccc(c2)CSC[C@@H](C(N)=O)NC(=O)[C@H](Cc2ccccc2)NC(=O)[C@H](CCC(=O)O)NC(=O)[C@H]([C@@H](C)O)NC(=O)[C@@H]2CC(F)(F)CN2C(=O)[C@@H]2CCCN2C1=O` [3BP-3365, Hex-[Cys(3MeBn)-Pro-4Dfp-Thr-Glu-Phe-Cys]-NH2] (Hexanoyl-CP[Pro(4,4-F2)]TEFC-NH2; linker 1-7 via mXylylene), the IC50 in assay [1] (setting [3]) is 100 to 794 nM; in assay [2], greater than 1000 nM.
For `CSCC[C@H](NC(C)=O)C(=O)N[C@H]1CSCc2cccc(c2)CSC[C@@H](C(=O)N[C@@H](CC(=O)O)C(=O)N[C@@H](Cc2c[nH]cn2)C(=O)N[C@@H](Cc2ccccc2)C(=O)N[C@@H](CCCNC(=N)N)C(=O)N[C@@H](CC(=O)O)C(N)=O)NC(=O)[C@H](Cc2ccccc2)NC(=O)[C@H](CCC(=O)O)NC(=O)[C@H]([C@@H](C)O)NC(=O)[C@@H]2CCCN2C(=O)[C@@H]2C[C@@H]3CCCC[C@@H]3N2C1=O` [3BP-3216, Ac-Met-[Cys(3MeBn)-Oic-Pro-Thr-Glu-Phe-Cys]-Asp-His-Phe-Arg-Asp-NH2] (Ac-MC[Oic]PTEFCDHFRD-NH2; linker 2-8 via mXylylene), the IC50 in assay [1] (setting [3]) and in assay [2] was 100 to 794 nM throughout.
For the compound `C=CCCC(=O)N[C@H]1CSCc2cc(CSCCNC(=O)CN3CCN(CC(=O)O)CCN(CC(=O)O)CCN(CC(=O)O)CC3)cc(c2)CSC[C@@H](C(=O)O)NC(=O)[C@H](Cc2ccccc2)NC(=O)[C@H](CCC(N)=O)NC(=O)[C@H]([C@@H](C)O)NC(=O)[C@@H]2CCCN2C(=O)[C@@H]2CCCN2C1=O` [3BP-3914, Peet-[Cys(tMeBn(DOTA-AET))-Pro-Pro-Thr-Gln-Phe-Cys]-OH], the IC50 in assay [1] (FRET-peptide substrate) and in assay [2] was 10 to 79.4 nM in each case.
In the case of `CCCC[C@H](NC(=O)CCC(=O)NCCCOCCOCCOCCCNC(=O)CC[C@H](NC(=O)C(CNCCN)CNCCN)C(=O)O)C(=O)N[C@H]1CSCc2cccc(c2)CSC[C@@H](C(=O)O)NC(=O)[C@H](Cc2ccccc2)NC(=O)[C@H](CCC(N)=O)NC(=O)[C@H]([C@@H](C)O)NC(=O)[C@@H]2CCCN2C(=O)[C@@H]2CCCN2C1=O` [3BP-4245, N4Ac-gGlu-Ttds-Nle-[Cys-(3MeBn)-Pro-Pro-Thr-Gln-Phe-Cys]-OH], the IC50 in assay [1] (FRET-peptide substrate) and in assay [2] was 10 to 79.4 nM each time.
